Test [1] relates to U87-MG cells. Put plainly: Cell viability with TMZ and DDI199 alone or combined. Format: cell-based, human. The note with it: 72 h, 250 µM TMZ or 0.5 µM DDI199 alone. The method, then: MTT assay was used to study cell viability. For that, cells were seeded at a density of 1.5 × 10^3 cells/well in 96-well plates, incubated overnight and then treated with increasing concentrations of DDI199. After 72 h of treatment, MTT absorbance was measured at 570 nm. GraphPad Prism software was used to analyze results and calculate IC50 values.

Test [2] has as its system U87-MG cells. Put plainly: Subcutaneous U87-MG tumor growth, combined treatment with TMZ. The note with it: end-point, controls 600 mm^3. It is filed as in vivo, athymic nude-Foxn1nu mice. As for the experimental part:
(§1) For tumor growth experiments, 5 × 10^5 U87-MG cells were subcutaneously injected into two bottom flanks of athymic nude-Foxn1^nu mice, and once tumors reached a size of 25-50 mm^3, mice were sorted into groups taking into account gender and tumor size. Afterwards, mice were intratumorally treated with vehicle, SAHA 100 µM or DDI199 100 µM following a schedule of 5 days on and 2 days off. In combined treatment, mice were treated intraperitoneally with 0.5 mg/Kg of TMZ for 5 days and intratumorally following a schedule of 5 days on and 2 days off with vehicle, SAHA 100 µM or DDI199 100 µM. After 4 weeks of treatment, some mice were kept for washout experiment, while the rest were sacrificed and tumors were extracted for immunohistochemistry and to disaggregate for reinjection and oncosphere formation studies. For reinjection assays, 1.5 × 10^5 cells were subcutaneously injected and tumor size was periodically measured. Once tumors reached end-point criteria, they were extracted for immunohistochemical analysis. An external caliper was used for tumor size measurement and the tumor volume was estimated using the formula V = L · W^2 · 0.5 (where L is tumor length and W is the tumor width).

In test [3] the test system is U87-MG cells. Put plainly: Washout experiment after treatment. It is filed as in vivo, athymic nude-Foxn1nu mice. The note with it: after 4 weeks treatment; controls 10 days. The method, then: as §1
Test [4] has as its system U87-MG cells. The test can be described thus: Subcutaneous U87-MG tumor growth, single treatment. Format: in vivo, athymic nude-Foxn1nu mice. The note with it: day 34, 100 µM intratumoral, 5 days on 2 days off; controls 800 mm^3. The method, then:
as §1

With `Cn1nnc2c(C(N)=O)ncn2c1=O` [TMZ, temozolomide, reference compound], the “Cell viability, single agent” value in test [1] is “reduced cell viability”. For the same compound, the “Mean tumor volume, TMZ alone” value in test [2] (TMZ 0.5 mg/kg ip 5 days) worked out at 400 mm^3.
As for `O=C(CCCCCCC(=O)Nc1ccccc1)NO` [SAHA, Vorinostat, reference compound], the “Time to end-point volume after washout” value in test [3] was 10 days. Moreover, the “Mean final tumor volume” value in test [4] came out at 550 mm^3. Further, the “Mean tumor volume, combined with TMZ” value in test [2] (TMZ 0.5 mg/kg ip 5 days + 100 µM intratumoral) is on record as 355 mm^3.

Source of the values: publication PMC11971462, “Generation and validation of a novel multitarget small molecule in glioblastoma” (Cell Death & Disease, 2025).
